The experiment deals with SYK (Homo sapiens, UniProt P43405). Briefly: SYK inhibition assay: SYK-mediated phosphorylation of FAM-labeled substrate (Caliper microfluidic). The format is biochemical. Conditions: read-out: SYK Inhibition (pIC50) (converted).

We go through 14 compounds from patent publication US9181255B2, “Fused heteroaromatic pyrrolidinones as SYK inhibitors” (Takeda Pharmaceutical Company Limited, priority 2009, dated 2015).

For the compound `CNC(=O)[C@@H](CC(C)C)Nc1nc(-c2cnn(C)c2)c2c(c1F)CNC2=O` [Example 107, (R)-2-(7-Fluoro-4-(1-methyl-1H-pyrazol-4-yl)-3-oxo-2,3-dihydro-1H-pyrrolo[3,4-c]pyridin-6-ylamino)-N,4-dimethylpentanamide], the IC50 is 501 nM.

For the compound `CC(C)Cn1cc(-c2nc(N[C@@H]3CCCC[C@@H]3N)nc3c2C(=O)NC3)cn1` [Example 15, 2-((1R,2S)-2-Aminocyclohexylamino)-4-(1-isobutyl-1H-pyrazol-4-yl)-6,7-dihydro-5H-pyrrolo[3,4-c]pyrimidin-5-one], the IC50 is 1000 nM.

In the case of `Cc1cccc(Nc2nc(N[C@@H]3CCCC[C@@H]3N)nc3c2C(=O)NC32CC2)c1` [Example 39, 2′-((1R,2S)-2-Aminocyclohexylamino)-4′-(m-tolylamino)spiro[cyclopropane-1,7′-pyrrolo[3,4-d]pyrimidin]-5′(6′H)-one], the IC50 is 3160 nM.

Turning to `CC(C)C[C@@H](Nc1cc2c(c(-c3cnn(C)c3)n1)C(=O)NC2)C(N)=O` [Example 36, (R)-4-Methyl-2-(4-(1-methyl-1H-pyrazol-4-yl)-3-oxo-2,3-dihydro-1H-pyrrolo[3,4-c]pyridin-6-ylamino)pentanamide], the IC50 was 25.1 nM.

As to `Cc1ncc(-c2nc(N[C@@H]3CCOC[C@@H]3N)c(F)c3c2C(=O)NC3)s1` [Example 133, 6-((3R,4R)-3-Aminotetrahydro-2H-pyran-4-ylamino)-7-fluoro-4-(2-methylthiazol-5-yl)-1H-pyrrolo[3,4-c]pyridin-3(2H)-one], the IC50 was 25.1 nM.

Regarding `CC(C)n1cc(-c2nc(N[C@@H]3CCCC[C@@H]3N)c(F)c3c2C(=O)NC3)cn1` [Example 97, 6-((1R,2S)-2-Aminocyclohexylamino)-7-fluoro-4-(1-isopropyl-1H-pyrazol-4-yl)-1H-pyrrolo[3,4-c]pyridin-3(2H)-one], the IC50 is 158 nM.

As for `CC(C)C[C@@H](Nc1nc(-c2cncs2)c2c(c1F)CNC2=O)C(N)=O` [Example 118, (R)-2-(7-Fluoro-3-oxo-4-(thiazol-5-yl)-2,3-dihydro-1H-pyrrolo[3,4-c]pyridin-6-ylamino)-4-methylpentanamide], the IC50 was 12.6 nM.

With `Cc1cccc(Nc2nc(-c3cnn(C)c3)nc3c2C(=O)NC3)c1` [Example 7, 2-(1-Methyl-1H-pyrazol-4-yl)-4-(m-tolylamino)-6,7-dihydro-5H-pyrrolo[3,4-c]pyrimidin-5-one], the IC50 was 1000 nM.

As to `CCn1cc(-c2nc(N[C@@H]3CCCC[C@@H]3N)c(F)c3c2C(=O)NC3)cn1` [Example 60, 6-((1R,2S)-2-Aminocyclohexylamino)-4-(1-ethyl-1H-pyrazol-4-yl)-7-fluoro-1H-pyrrolo[3,4-c]pyridin-3(2H)-one], the IC50 was 15.8 nM.

Turning to `CCOC[C@H](N)CNc1cc2c(c(Nc3cccc(C)c3)n1)C(=O)NC2` [Example 54, (R)-6-(2-Amino-3-ethoxypropylamino)-4-(m-tolylamino)-1H-pyrrolo[3,4-c]pyridin-3(2H)-one], the IC50 is 251 nM.

As for `Cn1cc(-c2nc(N3CCC[C@H](N)C3)c(F)c3c2C(=O)NC3)cn1` [Example 96, (S)-6-(3-Aminopiperidin-1-yl)-7-fluoro-4-(1-methyl-1H-pyrazol-4-yl)-1H-pyrrolo[3,4-c]pyridin-3(2H)-one], the IC50 is 200 nM.

On to `Cc1cccc(Nc2nc(NCCN)nc3c2C(=O)NC3)c1` [Example 40, 2-(2-Aminoethylamino)-4-(m-tolylamino)-6,7-dihydro-5H-pyrrolo[3,4-d]pyrimidin-5-one], for which the IC50 is 251 nM.

As for `N[C@H]1CCCC[C@H]1Nc1nc2c(c(-c3cc4ccccc4[nH]3)n1)C(=O)NC2` [Example 47, 2-((1R,2S)-2-Aminocyclohexylamino)-4-(1H-indol-2-yl)-6,7-dihydro-5H-pyrrolo[3,4-c]pyrimidin-5-one], the IC50 is 2.51 nM.

For the compound `N[C@H]1CCCC[C@H]1Nc1nc(-c2cnn(C3CC3)c2)c2c(c1F)CNC2=O` [Example 63, 6-((1R,2S)-2-Aminocyclohexylamino)-4-(1-cyclopropyl-1H-pyrazol-4-yl)-7-fluoro-1H-pyrrolo[3,4-c]pyridin-3(2H)-one], the IC50 was 7.94 nM.
